In the supplement of paper PMC10307832 one finds relative viability data, which are given here for one cell line.

What all share (test): relative viability (nuclei count vs DMSO), 5 days (fraction); higher = more cells survive
Compound in experiment [1]: CC1=NN=C(O1)C2=NN=C(C=C2)N3CCC(CC3)OC4=C(C=CC(=C4)F)Cl + CS(=O)(=O)N1CCN(Cc2cc3nc(-c4cccc5[nH]ncc45)nc(N4CCOCC4)c3s2)CC1 [Pictilisib] (partner 1 µM)
The gist of the method:
(§1)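 The day after seeding in 1536-well plates, lung cancer cell lines were treated by pin tool with a single drug, or with a fixed anchor-drug dose together with five library-drug doses (not always all listed) in √10 steps. After 5 days, a combined fix-and-stain solution (final 0.05% Triton X-100, 1% formaldehyde, 1 ug/ml Hoechst) was added. Nuclei counted on 4× images gave relative viability as treated counts over vehicle counts, reported as the median of duplicate plates.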

Compound in experiment [2]: CC1=NN=C(O1)C2=NN=C(C=C2)N3CCC(CC3)OC4=C(C=CC(=C4)F)Cl + C[C@]1(O)C[C@@H](c2nc(-c3ccc4ccc(-c5ccccc5)nc4c3)c3c(N)nccn32)C1 [Linsitinib] (partner 1 µM)
The procedure, abridged: as §1

Compound in experiment [3]: CC1=NN=C(O1)C2=NN=C(C=C2)N3CCC(CC3)OC4=C(C=CC(=C4)F)Cl + C[C@@H](Oc1cc(-c2cnn(C3CCNCC3)c2)cnc1N)c1c(Cl)ccc(F)c1Cl [Crizotinib] (partner 1 µM)
The procedure, abridged:
as §1

Compound in experiment [4]: CC(C)C[C@@H](C(=O)N[C@H](C(=O)OC1CCCC1)c1ccccc1)[C@H](O)C(=O)NO [Tosedostat] + COc1cc2c(Oc3ccc(NC(=O)C4(C(=O)Nc5ccc(F)cc5)CC4)cc3F)ccnc2cc1OCCCN1CCOCC1 [Foretinib] (partner 0.25 µM)
The procedure, abridged: as §1

Turning to UMC-11, the relative viability was determined as 0.723 in experiment [1] (first compound 0.253 µM); 0.65 in experiment [1] (first compound 0.8 µM); 0.797 in experiment [1] (first compound 2.53 µM); 0.684 in experiment [1] (first compound 8 µM); 0.758 in experiment [2] (first compound 0.253 µM); 0.732 in experiment [2] (first compound 0.8 µM). The relative viability in experiment [2] (first compound 2.53 µM) is 0.714; in experiment [2] (first compound 8 µM), 0.744; in experiment [3] (first compound 0.253 µM), 0.468; in experiment [3] (first compound 0.8 µM), 0.474; in experiment [3] (first compound 2.53 µM), 0.476; in experiment [3] (first compound 8 µM), 0.487. Further, the relative viability in experiment [4] (first compound 0.02 µM) was found to be 1.22; in experiment [4] (first compound 0.06325 µM) it was 0.969; in experiment [4] (first compound 0.2 µM), 1.02; in experiment [4] (first compound 0.6325 µM), 1.09; in experiment [4] (first compound 2 µM), 1.03.
